Values belong to the molecule of their own block, whether it stands above or below them. Activity calls are given as the source filed them. The calls are words filed in the database; no cut-off is given here.
Legend:
[1] = biological target: T1, Tyrosine-protein phosphatase non-receptor type 11 (Homo sapiens) (UniProt Q06124); assay: Inhibition of human SHP2 using pNPP as substrate at 25 uM incubated for 30 mins relative to control
T1 sequence (whole entry): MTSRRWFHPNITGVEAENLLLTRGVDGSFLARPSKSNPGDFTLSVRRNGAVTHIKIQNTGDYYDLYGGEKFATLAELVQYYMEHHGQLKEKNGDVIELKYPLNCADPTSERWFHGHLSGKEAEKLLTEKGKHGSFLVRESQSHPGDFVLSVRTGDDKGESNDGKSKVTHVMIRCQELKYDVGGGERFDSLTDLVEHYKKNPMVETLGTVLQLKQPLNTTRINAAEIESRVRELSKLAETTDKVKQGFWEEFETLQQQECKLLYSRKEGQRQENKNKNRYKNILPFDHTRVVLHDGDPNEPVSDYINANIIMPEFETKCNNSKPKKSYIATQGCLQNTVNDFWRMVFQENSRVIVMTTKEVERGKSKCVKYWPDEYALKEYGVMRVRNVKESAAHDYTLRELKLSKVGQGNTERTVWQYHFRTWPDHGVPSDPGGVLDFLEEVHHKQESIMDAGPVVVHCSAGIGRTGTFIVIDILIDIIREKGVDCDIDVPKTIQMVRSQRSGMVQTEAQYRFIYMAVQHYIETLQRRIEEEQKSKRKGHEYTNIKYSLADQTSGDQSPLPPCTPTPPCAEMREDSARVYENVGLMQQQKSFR

[2] = biological target: T2, Tyrosine-protein phosphatase non-receptor type 1 (Homo sapiens, UniProt P18031); assay: Inhibition of recombinant PTP1B (unknown origin) using pNPP as substrate incubated for 30 mins
T2 sequence (P18031 whole entry): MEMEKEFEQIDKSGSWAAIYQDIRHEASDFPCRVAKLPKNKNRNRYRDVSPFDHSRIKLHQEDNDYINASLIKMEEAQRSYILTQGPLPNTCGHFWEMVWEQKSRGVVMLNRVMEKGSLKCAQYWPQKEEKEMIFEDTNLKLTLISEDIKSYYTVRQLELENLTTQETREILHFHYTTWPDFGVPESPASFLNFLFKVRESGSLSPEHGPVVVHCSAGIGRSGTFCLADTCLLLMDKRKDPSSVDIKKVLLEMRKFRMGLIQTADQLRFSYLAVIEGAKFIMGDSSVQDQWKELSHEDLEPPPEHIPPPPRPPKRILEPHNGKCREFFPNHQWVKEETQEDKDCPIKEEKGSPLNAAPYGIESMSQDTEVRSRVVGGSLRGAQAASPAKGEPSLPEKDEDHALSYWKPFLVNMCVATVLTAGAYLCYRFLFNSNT

[3] = biological target: T3, Receptor-type tyrosine-protein phosphatase F (Homo sapiens, UniProt P10586); assay: Inhibition of human LAR using pNPP as substrate at 25 uM incubated for 30 mins relative to control
[4] = biological target: T4, Tyrosine-protein phosphatase non-receptor type 6 (Homo sapiens, UniProt P29350); assay: Inhibition of human SHP1 using pNPP as substrate incubated for 30 mins
[5] = biological target: T5, Tyrosine-protein phosphatase non-receptor type 2 (Homo sapiens, UniProt P17706); assay: Inhibition of human TCPTP using pNPP as substrate incubated for 30 mins
T5 sequence (P17706 whole entry): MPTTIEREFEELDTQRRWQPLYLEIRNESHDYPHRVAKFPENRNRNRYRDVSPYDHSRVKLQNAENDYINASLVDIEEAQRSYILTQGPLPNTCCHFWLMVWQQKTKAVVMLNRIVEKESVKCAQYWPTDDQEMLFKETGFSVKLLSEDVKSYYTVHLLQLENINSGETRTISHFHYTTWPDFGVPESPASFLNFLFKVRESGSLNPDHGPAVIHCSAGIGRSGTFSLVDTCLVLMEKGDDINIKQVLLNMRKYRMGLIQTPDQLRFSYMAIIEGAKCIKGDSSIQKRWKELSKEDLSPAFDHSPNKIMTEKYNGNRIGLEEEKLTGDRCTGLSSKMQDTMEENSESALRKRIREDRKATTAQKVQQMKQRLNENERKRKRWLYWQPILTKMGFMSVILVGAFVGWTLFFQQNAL

Homo sapiens = species: Homo sapiens; assay: Selectivity ratio of IC50 for human SHP1 to IC50 for recombinant PTP1B (unknown origin)
[6] = biological target: T6, Tyrosine-protein phosphatase non-receptor type 1 (Homo sapiens) (UniProt P18031); assay: Inhibition of recombinant PTP1B (unknown origin) using pNPP as substrate at 25 uM incubated for 30 mins relative to control
T6 sequence (whole entry): T2 sequence (P18031 whole entry)

[7] = biological target: T3, Receptor-type tyrosine-protein phosphatase F; assay: Inhibition of human LAR using pNPP as substrate incubated for 30 mins
[8] = biological target: T7, Tyrosine-protein phosphatase non-receptor type 1 (Rattus norvegicus) (UniProt P20417); assay: Inhibition of PTP1B in rat L6 cells assessed as increase in insulin-stimulated 2-NBDG uptake at 5 uM preincubated for 4 hrs followed by insulin stimulation for 10 mins and subsequent addition of 2-NBDG measured after 30 mins by fluorescence assay relative to control; assay type: cell-based; parameters: scale not given: the % may be the effect or the level left
T7 sequence (whole entry): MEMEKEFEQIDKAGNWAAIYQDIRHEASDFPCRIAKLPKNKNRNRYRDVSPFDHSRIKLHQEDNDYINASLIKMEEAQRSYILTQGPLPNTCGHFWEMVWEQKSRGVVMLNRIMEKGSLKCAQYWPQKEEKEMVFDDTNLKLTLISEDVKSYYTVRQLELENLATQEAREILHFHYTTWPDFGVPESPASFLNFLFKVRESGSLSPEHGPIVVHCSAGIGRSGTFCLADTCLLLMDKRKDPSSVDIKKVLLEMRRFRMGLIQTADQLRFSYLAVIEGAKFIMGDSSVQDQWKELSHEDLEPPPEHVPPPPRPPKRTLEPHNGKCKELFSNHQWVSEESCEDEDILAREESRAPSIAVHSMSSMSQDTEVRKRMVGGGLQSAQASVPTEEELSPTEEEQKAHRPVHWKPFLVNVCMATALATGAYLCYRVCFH

[9] = biological target: T8, Tyrosine-protein phosphatase non-receptor type 11 (Homo sapiens, UniProt Q06124); assay: Inhibition of human SHP2 using pNPP as substrate incubated for 30 mins
T8 sequence (Q06124 whole entry): T1 sequence (whole entry)

[10] = biological target: T7, Tyrosine-protein phosphatase non-receptor type 1 (Rattus norvegicus); assay: Inhibition of PTP1B in rat L6 cells assessed as increase in insulin-stimulated 2-NBDG uptake at 10 uM preincubated for 4 hrs followed by insulin stimulation for 10 mins and subsequent addition of 2-NBDG measured after 30 mins by fluorescence assay relative to control; assay type: cell-based; parameters: scale not given: the % may be the effect or the level left
CHO = assay: Inhibition of PTP1B in CHO cells expressing human IR assessed as increase in insulin-mediated IR-beta phosphorylation at tyrosine residue 20 at 15 to 30 uM preincubated for 4 hrs followed by insulin stimulation measured after 10 mins by western blot analysis; assay type: cell-based; conditions: Cricetulus griseus
[11] = biological target: T7, Tyrosine-protein phosphatase non-receptor type 1 (Rattus norvegicus); assay: Inhibition of PTP1B in rat L6 cells assessed as increase in insulin-stimulated 2-NBDG uptake at 20 uM preincubated for 4 hrs followed by insulin stimulation for 10 mins and subsequent addition of 2-NBDG measured after 30 mins by fluorescence assay relative to control; assay type: cell-based; parameters: scale not given: the % may be the effect or the level left
[12] = biological target: T9, Tyrosine-protein phosphatase non-receptor type 2 (Homo sapiens) (UniProt P17706); assay: Inhibition of human TCPTP using pNPP as substrate at 25 uM incubated for 30 mins relative to control
T9 sequence (whole entry): T5 sequence (P17706 whole entry)

[13] = biological target: T4, Tyrosine-protein phosphatase non-receptor type 6; assay: Inhibition of human SHP1 using pNPP as substrate at 25 uM incubated for 30 mins relative to control

T3 sequence (P10586 whole entry): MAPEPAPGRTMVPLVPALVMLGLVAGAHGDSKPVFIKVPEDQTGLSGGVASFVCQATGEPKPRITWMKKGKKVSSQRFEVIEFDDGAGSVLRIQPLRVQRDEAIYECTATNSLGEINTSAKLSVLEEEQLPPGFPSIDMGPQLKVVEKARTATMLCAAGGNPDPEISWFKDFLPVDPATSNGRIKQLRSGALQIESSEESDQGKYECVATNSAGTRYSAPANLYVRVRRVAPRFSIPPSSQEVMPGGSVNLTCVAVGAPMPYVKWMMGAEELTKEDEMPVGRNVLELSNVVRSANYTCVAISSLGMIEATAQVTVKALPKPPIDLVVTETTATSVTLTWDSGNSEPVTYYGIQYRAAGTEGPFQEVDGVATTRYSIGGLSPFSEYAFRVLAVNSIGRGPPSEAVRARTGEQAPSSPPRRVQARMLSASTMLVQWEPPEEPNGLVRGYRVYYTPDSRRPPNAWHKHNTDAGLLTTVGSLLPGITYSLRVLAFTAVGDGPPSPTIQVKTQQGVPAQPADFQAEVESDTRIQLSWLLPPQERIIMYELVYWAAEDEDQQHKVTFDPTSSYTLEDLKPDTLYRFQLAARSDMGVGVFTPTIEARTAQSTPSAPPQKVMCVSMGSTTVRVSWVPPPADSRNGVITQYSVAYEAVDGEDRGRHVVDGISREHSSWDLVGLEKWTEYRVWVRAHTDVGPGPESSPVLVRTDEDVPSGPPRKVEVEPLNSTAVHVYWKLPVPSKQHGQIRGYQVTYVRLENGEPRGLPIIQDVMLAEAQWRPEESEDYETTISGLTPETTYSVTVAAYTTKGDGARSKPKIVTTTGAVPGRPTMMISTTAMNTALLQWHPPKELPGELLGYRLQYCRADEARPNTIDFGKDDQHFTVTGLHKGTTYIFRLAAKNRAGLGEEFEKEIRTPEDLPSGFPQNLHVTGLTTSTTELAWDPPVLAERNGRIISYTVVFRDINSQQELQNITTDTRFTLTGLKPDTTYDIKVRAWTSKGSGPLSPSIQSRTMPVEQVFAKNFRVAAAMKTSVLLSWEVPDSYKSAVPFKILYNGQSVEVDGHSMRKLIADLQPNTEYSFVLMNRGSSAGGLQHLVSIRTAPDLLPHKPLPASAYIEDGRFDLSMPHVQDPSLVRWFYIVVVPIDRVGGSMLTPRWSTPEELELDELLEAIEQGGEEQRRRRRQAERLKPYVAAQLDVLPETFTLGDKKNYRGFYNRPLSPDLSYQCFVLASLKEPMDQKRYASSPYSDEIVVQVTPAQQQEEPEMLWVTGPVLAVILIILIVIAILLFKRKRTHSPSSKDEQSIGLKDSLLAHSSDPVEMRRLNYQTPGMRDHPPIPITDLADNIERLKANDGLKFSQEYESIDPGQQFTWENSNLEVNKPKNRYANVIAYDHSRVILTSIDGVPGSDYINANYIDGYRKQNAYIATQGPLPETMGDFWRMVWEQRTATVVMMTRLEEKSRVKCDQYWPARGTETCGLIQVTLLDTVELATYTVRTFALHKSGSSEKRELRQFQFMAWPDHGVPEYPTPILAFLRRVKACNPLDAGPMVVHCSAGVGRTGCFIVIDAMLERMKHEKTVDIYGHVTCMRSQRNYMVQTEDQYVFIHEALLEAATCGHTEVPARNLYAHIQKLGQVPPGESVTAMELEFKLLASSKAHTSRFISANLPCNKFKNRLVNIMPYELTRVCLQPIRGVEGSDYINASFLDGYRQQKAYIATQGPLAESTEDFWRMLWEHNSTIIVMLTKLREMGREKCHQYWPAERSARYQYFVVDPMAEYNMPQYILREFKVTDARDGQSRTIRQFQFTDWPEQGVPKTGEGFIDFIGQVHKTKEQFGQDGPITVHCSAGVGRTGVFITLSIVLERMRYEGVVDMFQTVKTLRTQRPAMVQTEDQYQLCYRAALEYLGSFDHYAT
T4 sequence (P29350 whole entry): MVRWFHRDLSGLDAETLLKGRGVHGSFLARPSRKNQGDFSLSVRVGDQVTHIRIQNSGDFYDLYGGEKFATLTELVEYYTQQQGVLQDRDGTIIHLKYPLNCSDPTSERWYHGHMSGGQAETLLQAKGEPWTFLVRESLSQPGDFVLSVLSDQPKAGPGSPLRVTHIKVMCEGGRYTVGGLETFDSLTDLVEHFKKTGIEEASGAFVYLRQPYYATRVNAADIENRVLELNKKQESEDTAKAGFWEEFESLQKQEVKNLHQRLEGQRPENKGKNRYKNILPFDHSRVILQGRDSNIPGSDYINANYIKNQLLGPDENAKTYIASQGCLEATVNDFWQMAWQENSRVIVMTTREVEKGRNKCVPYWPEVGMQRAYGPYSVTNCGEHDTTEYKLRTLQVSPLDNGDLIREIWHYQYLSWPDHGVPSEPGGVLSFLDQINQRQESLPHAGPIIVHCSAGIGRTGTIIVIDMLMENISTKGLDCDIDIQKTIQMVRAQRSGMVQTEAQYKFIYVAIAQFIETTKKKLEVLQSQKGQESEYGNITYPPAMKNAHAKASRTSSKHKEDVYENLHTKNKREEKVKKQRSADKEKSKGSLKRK

inhibition [1]: < 50%
IC50 [2]: 355 nM
inhibition [3]: < 50%
IC50 [4]: 6460 nM
IC50 [5]: 427 nM
Ratio IC50 (Homo sapiens): 18
SMILES: COC(=O)CN(c1ccc(CN(c2ccc(OCc3ccccc3)c(C(=O)OC)c2)S(=O)(=O)Cc2ccccc2)cc1)S(C)(=O)=O

inhibition [6]: < 50%
SMILES: CCOc1ccc(N(Cc2ccc(N(CC(=O)OC)S(C)(=O)=O)cc2)S(=O)(=O)Cc2ccccc2)cc1C(=O)OC

IC50 [2]: 4830 nM
SMILES: CCCCOc1ccc(N(Cc2ccc(N(CC(=O)OC)S(C)(=O)=O)cc2)S(=O)(=O)Cc2ccccc2)cc1C(=O)OC

IC50 [7]: 12600 nM
IC50 [2]: 50 nM
Activity [8]: 16%
IC50 [9]: 2160 nM
Activity [10]: 19%
IC50 [4]: 2450 nM
IC50 [5]: 760 nM
Ratio IC50 (Homo sapiens): 49
Activity [11]: 38.1%
SMILES: COC(=O)CN(c1ccc(CN(c2ccc(OCc3ccc(C)cc3)c(C(=O)OC)c2)S(=O)(=O)Cc2ccccc2)cc1)S(C)(=O)=O
inhibition (CHO): Active

inhibition [1]: < 50%
IC50 [2]: 936 nM
Activity [8]: 6.9%
inhibition [12]: < 50%
inhibition [13]: < 50%
inhibition [3]: < 50%
Activity [10]: 26.1%
Activity [11]: 27.7%
SMILES: CCCOc1ccc(N(Cc2ccc(N(CC(=O)OC)S(C)(=O)=O)cc2)S(=O)(=O)Cc2ccccc2)cc1C(=O)OC

inhibition [6]: < 50%
SMILES: COC(=O)CN(c1ccc(CN(c2ccc(OCc3cccc(C)c3)c(C(=O)OC)c2)S(=O)(=O)Cc2ccccc2)cc1)S(C)(=O)=O

IC50 [2]: 16000 nM
SMILES: COC(=O)CN(c1ccc(CN(c2ccc(OCc3ccccc3)cc2)S(=O)(=O)Cc2ccccc2)cc1)S(C)(=O)=O

IC50 [7]: 22300 nM
IC50 [9]: 11600 nM
SMILES: CC1(C)CC[C@]2(C(=O)O)CC[C@]3(C)C(=CC[C@@H]4[C@@]5(C)CC[C@H](O)C(C)(C)[C@@H]5CC[C@]43C)[C@@H]2C1 [OLEANOLIC_ACID]
